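At the GI50, growth is halved. TGI is the concentration that stops growth completely.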
Columns and labels:
Assay in all cases: DTP human tumour cell line panel, 384-well format
MOLT-4 leukemia = test system: MOLT-4 leukemia
BT-549 breast = test system: BT-549 breast
IGROV1 ovarian = test system: IGROV1 ovarian
HL-60(TB) leukemia = test system: HL-60(TB) leukemia
RXF 393 renal = test system: RXF 393 renal
NCI-H23 lung = test system: NCI-H23 lung
SW-620 colon = test system: SW-620 colon
RPMI-8226 leukemia = test system: RPMI-8226 leukemia
MDA-MB-435 melanoma = test system: MDA-MB-435 melanoma
MDA-MB-231 breast = test system: MDA-MB-231 breast
A498 renal = test system: A498 renal
SR leukemia = test system: SR leukemia
HCC-2998 colon = test system: HCC-2998 colon
SF-295 CNS = test system: SF-295 CNS
K-562 leukemia = test system: K-562 leukemia
SK-MEL-5 melanoma = test system: SK-MEL-5 melanoma
M14 melanoma = test system: M14 melanoma
HS 578T breast = test system: HS 578T breast
NCI-H226 lung = test system: NCI-H226 lung
HT29 colon = test system: HT29 colon
TK-10 renal = test system: TK-10 renal
ACHN renal = test system: ACHN renal
NCI-H522 lung = test system: NCI-H522 lung
EKVX NSCLC = test system: EKVX NSCLC
UACC-257 melanoma = test system: UACC-257 melanoma
OVCAR-4 ovarian = test system: OVCAR-4 ovarian
A549 NSCLC = test system: A549 NSCLC
SK-MEL-28 melanoma = test system: SK-MEL-28 melanoma
CCRF-CEM leukemia = test system: CCRF-CEM leukemia
MALME-3M melanoma = test system: MALME-3M melanoma
DU-145 prostate = test system: DU-145 prostate
LOX IMVI melanoma = test system: LOX IMVI melanoma
PC-3 prostate = test system: PC-3 prostate
SF-268 CNS = test system: SF-268 CNS
SNB-19 CNS = test system: SNB-19 CNS
UACC-62 melanoma = test system: UACC-62 melanoma
NCI-H460 NSCLC = test system: NCI-H460 NSCLC
NCI-H322M lung = test system: NCI-H322M lung
U251 glioblastoma = test system: U251 glioblastoma
COLO 205 colon = test system: COLO 205 colon
SNB-75 CNS = test system: SNB-75 CNS
HOP-92 NSCLC = test system: HOP-92 NSCLC
HCT-116 colon = test system: HCT-116 colon
NCI/ADR-RES ovarian = test system: NCI/ADR-RES ovarian
786-0 renal = test system: 786-0 renal
OVCAR-8 ovarian = test system: OVCAR-8 ovarian
SK-OV-3 ovarian = test system: SK-OV-3 ovarian
SF-539 CNS = test system: SF-539 CNS
MDA-MB-468 breast = test system: MDA-MB-468 breast
MCF7 breast = test system: MCF7 breast
CAKI-1 renal = test system: CAKI-1 renal
UO-31 renal = test system: UO-31 renal
T-47D breast = test system: T-47D breast
OVCAR-3 ovarian = test system: OVCAR-3 ovarian
SN12C renal = test system: SN12C renal
HCT-15 colon = test system: HCT-15 colon
HOP-62 NSCLC = test system: HOP-62 NSCLC
KM12 colon = test system: KM12 colon
OVCAR-5 ovarian = test system: OVCAR-5 ovarian

## CC(=O)N1c2ccc(-c3ccc(C(=O)O)cc3)cc2[C@H](Nc2ccc(Cl)cc2)C[C@@H]1C
MOLT-4 leukemia
  GI50: 54.1 nM
  TGI: 2060 nM
BT-549 breast
  GI50: 43 nM
  TGI: 11400 nM
IGROV1 ovarian
  GI50: 75.6 nM
  TGI: 18800 nM
HL-60(TB) leukemia
  GI50: < 10 nM
  TGI: 25.9 nM
RXF 393 renal
  GI50: 702 nM
  TGI: 20800 nM
NCI-H23 lung
  GI50: 137 nM
  TGI: 11400 nM
SW-620 colon
  GI50: 2990 nM
  TGI: 22000 nM
RPMI-8226 leukemia
  GI50: < 10 nM
  TGI: 108 nM
MDA-MB-435 melanoma
  GI50: 669 nM
  TGI: 42600 nM
MDA-MB-231 breast
  GI50: 61.8 nM
  TGI: 75200 nM
A498 renal
  GI50: 239 nM
  TGI: 13500 nM
SR leukemia
  GI50: < 10 nM
  TGI: 50.2 nM
HCC-2998 colon
  GI50: 62.8 nM
  TGI: 676 nM
SF-295 CNS
  GI50: 975 nM
  TGI: 17300 nM
K-562 leukemia
  GI50: 84.2 nM
  TGI: 16800 nM
SK-MEL-5 melanoma
  GI50: 208 nM
  TGI: 13100 nM
M14 melanoma
  GI50: 144 nM
  TGI: 15500 nM
HS 578T breast
  GI50: 20.7 nM
  TGI: 185 nM
NCI-H226 lung
  GI50: 57.4 nM
  TGI: 2510 nM
HT29 colon
  GI50: 73.3 nM
  TGI: 15700 nM
TK-10 renal
  GI50: 48.6 nM
  TGI: 2650 nM
ACHN renal
  GI50: 558 nM
  TGI: 19700 nM
NCI-H522 lung
  GI50: 24.3 nM
  TGI: 1310 nM
EKVX NSCLC
  GI50: 1390 nM
  TGI: 46400 nM
UACC-257 melanoma
  GI50: 192 nM
  TGI: 53600 nM
OVCAR-4 ovarian
  GI50: 104 nM
  TGI: 659 nM
A549 NSCLC
  GI50: 456 nM
  TGI: 18600 nM
SK-MEL-28 melanoma
  GI50: 89.5 nM
  TGI: 15000 nM
CCRF-CEM leukemia
  GI50: 60.5 nM
  TGI: 8770 nM
MALME-3M melanoma
  GI50: 30.9 nM
  TGI: 1600 nM
DU-145 prostate
  GI50: 638 nM
  TGI: > 100000 nM
LOX IMVI melanoma
  GI50: 48.1 nM
  TGI: 209 nM
PC-3 prostate
  GI50: 369 nM
  TGI: 20600 nM
SF-268 CNS
  GI50: 386 nM
  TGI: 19500 nM
SNB-19 CNS
  GI50: 166 nM
  TGI: 27000 nM
UACC-62 melanoma
  GI50: 22.2 nM
  TGI: 2740 nM
NCI-H460 NSCLC
  GI50: 467 nM
  TGI: 15400 nM
NCI-H322M lung
  GI50: 201 nM
  TGI: 13300 nM
U251 glioblastoma
  GI50: 488 nM
  TGI: 21700 nM
COLO 205 colon
  GI50: 146 nM
  TGI: 10900 nM
SNB-75 CNS
  GI50: 213 nM
  TGI: 49300 nM
HOP-92 NSCLC
  GI50: 49.7 nM
  TGI: 16400 nM
HCT-116 colon
  GI50: 180 nM
  TGI: 12800 nM
NCI/ADR-RES ovarian
  GI50: 129 nM
  TGI: 3300 nM
786-0 renal
  GI50: 74.9 nM
  TGI: 24200 nM
OVCAR-8 ovarian
  GI50: 77 nM
  TGI: 3100 nM
SK-OV-3 ovarian
  GI50: 101 nM
  TGI: 14100 nM
SF-539 CNS
  GI50: 314 nM
  TGI: 11200 nM
MDA-MB-468 breast
  GI50: 171 nM
  TGI: 10500 nM
MCF7 breast
  GI50: 19.5 nM
  TGI: 10200 nM
CAKI-1 renal
  GI50: 31.3 nM
  TGI: 2560 nM
UO-31 renal
  GI50: 200 nM
  TGI: 13000 nM
T-47D breast
  GI50: 240 nM
  TGI: 12400 nM
OVCAR-3 ovarian
  GI50: 57 nM
  TGI: 11300 nM
SN12C renal
  GI50: 108 nM
  TGI: 20900 nM
HCT-15 colon
  GI50: 53.5 nM
  TGI: 10300 nM
HOP-62 NSCLC
  GI50: 47.8 nM
  TGI: 7200 nM
KM12 colon
  GI50: 193 nM
  TGI: 15500 nM

## C=CC(=O)Nc1cccc(Nc2nc(Nc3ccc(N4CCN(C(C)=O)CC4)cc3OC)ncc2C(F)(F)F)c1
MOLT-4 leukemia
  GI50: 521 nM
  TGI: 1870 nM
BT-549 breast
  GI50: 2870 nM
  TGI: 10200 nM
IGROV1 ovarian
  GI50: 493 nM
  TGI: 2090 nM
HL-60(TB) leukemia
  GI50: 1400 nM
  TGI: 2740 nM
RXF 393 renal
  GI50: 1880 nM
  TGI: 6600 nM
NCI-H23 lung
  GI50: 1940 nM
  TGI: 6870 nM
SW-620 colon
  GI50: 1750 nM
  TGI: 3450 nM
RPMI-8226 leukemia
  GI50: 1890 nM
  TGI: 5160 nM
MDA-MB-435 melanoma
  GI50: 4730 nM
  TGI: 17100 nM
MDA-MB-231 breast
  GI50: 3460 nM
  TGI: 17600 nM
A498 renal
  GI50: 1810 nM
  TGI: 9760 nM
HCC-2998 colon
  GI50: 1400 nM
  TGI: 8200 nM
SF-295 CNS
  GI50: 6740 nM
  TGI: 19800 nM
K-562 leukemia
  GI50: 3760 nM
  TGI: 13500 nM
SK-MEL-5 melanoma
  GI50: 1830 nM
  TGI: 8620 nM
M14 melanoma
  GI50: 1940 nM
  TGI: 8310 nM
HS 578T breast
  GI50: 1900 nM
  TGI: 6580 nM
NCI-H226 lung
  GI50: 1380 nM
  TGI: 6510 nM
HT29 colon
  GI50: 1800 nM
  TGI: 5070 nM
TK-10 renal
  GI50: 1620 nM
  TGI: 4780 nM
ACHN renal
  GI50: 1940 nM
  TGI: 19000 nM
NCI-H522 lung
  GI50: 288 nM
  TGI: 1550 nM
EKVX NSCLC
  GI50: 1070 nM
  TGI: 3720 nM
UACC-257 melanoma
  GI50: 2540 nM
  TGI: 11100 nM
OVCAR-4 ovarian
  GI50: 4330 nM
  TGI: 34600 nM
A549 NSCLC
  GI50: 597 nM
  TGI: 4840 nM
OVCAR-5 ovarian
  GI50: 2330 nM
  TGI: 14600 nM
SK-MEL-28 melanoma
  GI50: 10200 nM
  TGI: 23900 nM
CCRF-CEM leukemia
  GI50: 1640 nM
  TGI: 3220 nM
MALME-3M melanoma
  GI50: 2390 nM
  TGI: 8830 nM
DU-145 prostate
  GI50: 3510 nM
  TGI: 14000 nM
LOX IMVI melanoma
  GI50: 2640 nM
  TGI: 10400 nM
PC-3 prostate
  GI50: 4330 nM
  TGI: 15900 nM
SF-268 CNS
  GI50: 268 nM
  TGI: 2240 nM
SNB-19 CNS
  GI50: 8320 nM
  TGI: 20900 nM
UACC-62 melanoma
  GI50: 2360 nM
  TGI: 11800 nM
NCI-H460 NSCLC
  GI50: 2710 nM
  TGI: 7500 nM
NCI-H322M lung
  GI50: 1220 nM
  TGI: 3350 nM
U251 glioblastoma
  GI50: 5040 nM
  TGI: 17200 nM
COLO 205 colon
  GI50: 1340 nM
  TGI: 3190 nM
SNB-75 CNS
  GI50: 2980 nM
  TGI: 12200 nM
HOP-92 NSCLC
  GI50: 2060 nM
  TGI: 7690 nM
HCT-116 colon
  GI50: 3040 nM
  TGI: 13100 nM
NCI/ADR-RES ovarian
  GI50: 10600 nM
  TGI: 22700 nM
786-0 renal
  GI50: 2610 nM
  TGI: 13700 nM
OVCAR-8 ovarian
  GI50: 2830 nM
  TGI: 10200 nM
SK-OV-3 ovarian
  GI50: 2030 nM
  TGI: 9890 nM
SF-539 CNS
  GI50: 3460 nM
  TGI: 14100 nM
MDA-MB-468 breast
  GI50: 157 nM
  TGI: 810 nM
MCF7 breast
  GI50: 905 nM
  TGI: 5280 nM
CAKI-1 renal
  GI50: 1910 nM
  TGI: 6280 nM
UO-31 renal
  GI50: 2260 nM
  TGI: 9610 nM
T-47D breast
  GI50: 1440 nM
  TGI: 5280 nM
OVCAR-3 ovarian
  GI50: 2050 nM
  TGI: 5910 nM
SN12C renal
  GI50: 2070 nM
  TGI: 9130 nM
HCT-15 colon
  GI50: 2170 nM
  TGI: 8750 nM
HOP-62 NSCLC
  GI50: 1970 nM
  TGI: 12400 nM
KM12 colon
  GI50: 2160 nM
  TGI: 14400 nM
